Literature values, collected in publication PMC3010278 (Journal of medicinal chemistry, 2010).

Tested on: QR1
Details: in vivo

C[S+]([O-])CCCCN=C=S (stereo not shown) [Compound 54, sulforaphane]
QR1 induction in rat mammary gland: induce QR1
